Assay results reported in US20050222178A1, “Process” (priority 2002, published 2005).

Assay: relative stability of the polymorphic forms of Compound A
Assay type: physicochemical

CC(C)(C)c1nnc([C@H]2O[C@@H](n3cnc4c(Nc5ccc(Cl)cc5F)ncnc43)[C@H](O)[C@@H]2O)o1 [Polymorph I, (2S,3S,4R,5R)-2-(5-tert-butyl-[1,3,4]-oxadiazol-2-yl)-5-[6-(4-chloro-2-fluorophenylamino)-9H-purin-9-yl]-tetrahydrofuran-3,4-diol]
stability relative to the other polymorph (at ambient temperatures, for example 15-20° C.): enhanced stability over Polymorph II

CC(C)(C)c1nnc([C@H]2O[C@@H](n3cnc4c(Nc5ccc(Cl)cc5F)ncnc43)[C@H](O)[C@@H]2O)o1 [Polymorph II, (2S,3S,4R,5R)-2-(5-tert-butyl-[1,3,4]-oxadiazol-2-yl)-5-[6-(4-chloro-2-fluorophenylamino)-9H-purin-9-yl]-tetrahydrofuran-3,4-diol]
stability relative to the other polymorph (at elevated temperatures, for example temperatures in excess of 70° C.): enhanced stability over Polymorph I
